Row | melting point [°C] | Structure (SMILES)
1 | 154 | O=C(O)c1cc(Cl)ccc1Br
2 | 83.5 | OC(CNc1ccccn1)c1ccccc1 (stereo unspecified)
3 | 132 to 133 | COc1ccc(C=C2N=C(c3ccccc3)OC2=O)cc1OC
4 | 121 to 125 | COc1cc2c(cc1OC)C(c1ccccc1)=NCC2
5 | 59 | O=C(c1cccc(F)c1)c1cccc(F)c1
6 | -96 | CC(C)c1ccccc1
7 | 238 to 240 | CC(=O)N=c1c(-c2ccccc2)cc2cc3cc(-c4ccccc4)c(=NC(C)=O)n(C(C)=O)c3cc2n1C(C)=O
8 | 160 | CCOC(=O)c1c(SC)nn(C(=O)c2ccc(OC)cc2)c1N
9 | 61 | Nc1cnccc1Cl
10 | -56 | Cc1ccc(F)cc1
11 | 57 | N#Cc1cc(F)cc(Cl)c1
12 | 80 to 85 | Cc1ccc(CS(=O)(=O)Cl)cc1
13 | -23 to -22 | FC(F)(F)c1ccc(Cl)c(Br)c1
14 | 68 to 69 | O=Cc1ccccc1-c1cccnc1
15 | 8.1 | COc1ccc(OC)c(Cl)c1
16 | 199 to 201 | COC1(OC)C2C=C3OC(=O)C1C3(C)O2 (stereo unspecified)
17 | 76 to 77 | O=Cc1cccn1S(=O)(=O)c1ccccc1
18 | 150 | CC(C)CCC[C@@H](C)[C@H]1CC[C@H]2C3=CC=C4C[C@@H](O)CC[C@]4(C)[C@H]3CC[C@]12C
19 | < 25 | FCOC(C(F)(F)F)C(F)(F)F
20 | 173 to 177 | Oc1ccc(Sc2ccc(O)cc2O)c(O)c1

Row | melting point [°C] | Structure (SMILES)
21 | -8 | CCc1cccc(N)c1
22 | -11 | CN(C)[Si](C)(N(C)C)N(C)C
23 | 165 | Nc1ccc(-c2ccc(N)cc2Cl)c(Cl)c1
24 | 341 | Cn1c(S(=O)(=O)O)nc2ccccc21
25 | -10 | CCCCCC1C(=O)CCC1CC(=O)OC (stereo unspecified)
26 | 198 to 201 | O=C(C=NO)Nc1ccc(Cl)cc1Cl
27 | 28 | Cc1nc(-c2ccccc2)c(C)s1
28 | 84 to 87 | CCCCc1ccc(/N=N/c2ccc(OC(=O)CC)cc2)cc1
29 | 180 | CC(=O)Oc1ccc2c(c1)CCC1C2CCC2(C)C(=O)C(OC(C)=O)CC12 (stereo unspecified)
30 | 74 to 75 | CCCCNC(=O)NCCCC
31 | 125 | CCCC(C(N)=O)n1nnc2ccccc21 (stereo unspecified)
32 | 166 | Cc1cc(C(=O)O)cc(C)c1F
33 | 105 | COC1CC2C3(C)CCCC2(COC3=O)C2C(OC(C)=O)CC3C(C)C(=O)C12C3O (stereo unspecified)
34 | 223 to 227 | O=c1oc(=O)c2ccccc2c2ccccc12
35 | 164 | COc1ccc(-c2csc(/C(C#N)=N/Nc3cccc(C)c3C)n2)cc1
36 | 186 | CC(=O)N(Nc1ccccc1)c1ccc(N=Nc2ccccc2)cc1
37 | 70 to 71 | COC(=O)c1cscc1OC
38 | 247 to 249 | Cc1c(-c2ccccc2)sc2ncnc(O)c12
39 | 182 | NCC(=O)O
40 | 139 | O=C(c1cccs1)c1noc(-c2ccc([N+](=O)[O-])cc2)c1S(=O)(=O)c1ccccc1

Row | melting point [°C] | Structure (SMILES)
41 | 68 | CC(=O)C(Cc1ccccc1)C(=O)OC1CC(C)CCC1C(C)C (stereo unspecified)
42 | 15 | C/C=C/C=C/C(=O)OC
43 | 88 to 93 | Cc1csc(=S)n1O
44 | 76 to 78 | CC(C)Cc1ccc(C(C)C(=O)NN)cc1 (stereo unspecified)
45 | 146 | CCc1cccc2c3c([nH]c12)C(CC)(CC(=O)O)OCC3 (stereo unspecified)
46 | -41 | CC(C)(C)c1ccncc1
47 | 58 | COC(=O)c1cnccn1
48 | 232 to 280 | CN1CCOc2cc(C(=O)O)cnc21
49 | 180 to 182 | O=C(O)c1cccc(-c2ncccn2)c1
50 | 153 to 158 | O=C(O)c1cc(F)c(Cl)cc1F
51 | 128 to 129 | O=C(C=Cc1ccc(-c2ccc(Cl)cc2)o1)c1ccccc1
52 | 100 | CC(C)NCC(O)COc1ccc(COCCOC(C)C)cc1 (stereo unspecified)
53 | 107 | O=C(O)CCc1ccccc1
54 | 91.5 | Cc1c(-c2ccccc2)[nH]c2ccccc12
55 | 88.5 | CCCCCCCCCCCCCCCCCCCCCCCCCC(=O)O
56 | 205 | CCN1CCN(C(=O)N[C@@H](C(=O)O)c2ccc(O)cc2)C(=O)C1=O
57 | 258 to 260 | NNC(=O)C=Cc1ccc(C=CC(=O)NN)cc1
58 | 35 | CC(C)C=CC(=O)O

Second part, the compound before the results:

Row | Structure (SMILES) | melting point [°C]
59 | Ic1cccc(Cn2cccn2)c1 | 51 to 54
60 | COC(=O)c1cccc(Cn2nc(C)c(Br)c2C)c1 | 105 to 107
61 | OCc1c(F)ccc(F)c1Cl | 47
62 | Nc1cccc2c(N)cccc12 | 190
63 | O=Cc1ccc(O)c(C(=O)O)c1 | 250
64 | ClCc1ccc(Br)cc1 | 50
65 | Cc1cc(=O)oc2cc(OCC(=O)Cl)ccc12 | 129
66 | O=C(O)c1ccc2ccccc2c1O | 199 to 205
67 | COC(=O)c1ccc(Br)c(C)c1 | 42
68 | Sc1ccc2ccccc2c1 | 81
69 | O=S1(=O)CC(Br)C(Br)C1 (stereo unspecified) | 143
70 | CCCCCCCCCCC(=O)OCC(COC(=O)CCCCCCCCCC)OC(=O)CCCCCCCCCC | 24 to 32
71 | Brc1ccc(-c2csnn2)cc1 | 154 to 156
72 | O=[N+]([O-])C(CO)(CO)CO | 214
73 | CC(=O)Oc1ccc(C2(c3ccc(OC(C)=O)cc3)C(=O)Nc3ccccc32)cc1 | 242
74 | O=C(O)c1ccc(Br)c([N+](=O)[O-])c1 | 204
75 | C=C1C(C)CCC2(C)C3=C(C(=O)C4(CC4C)C(OC(C)=O)C3=O)C(OC(C)=O)C(OC(C)=O)C12 (stereo unspecified) | 173
76 | CCN(CC)c1ccc(N=O)cc1 | 87.5
77 | OCc1ccc(OCc2ccccc2)cc1 | 86
78 | Cc1cccc(/N=N/c2c(N)nn3c(C(F)(F)F)cc(=O)[nH]c23)c1 | 280
79 | CCCCCCCCCCF | -35
80 | C#Cc1ccc(C(C)=O)cc1 | 68 to 70
81 | Oc1c(-c2ccccc2)cccc1-c1ccccc1 | 102
82 | CC1(C)C(C(=O)c2ccccc2)=Nc2ccccc21 | 83
83 | Cc1ccc(C(=O)COc2c(C(=O)c3ccc(Cl)c(C)c3Cl)c(C)nn2C)cc1 | 133

Row | Structure (SMILES) | melting point [°C]
84 | COc1ccc(Cl)c(Cl)c1 | -8
85 | Cc1cc(-c2onc(C)c2C(=O)O)no1 | 167
86 | CCOC(=O)/C(=N\Nc1ccccc1)C(=O)C(F)(F)F | 80 to 82
87 | O=C(O)c1cc2cc(Cl)cc(Br)c2oc1=O | 206 to 208
88 | COc1ccc([N+](=O)[O-])c(I)c1 | 68 to 73
89 | CN1CCNC(=O)CCSCCSCCC1=O | 115 to 116
90 | Clc1nccnc1Cl | 22.5 to 24.5
91 | C#CCO | -51.8
92 | CNC(=O)Oc1ccc(N(C)C)c(C)c1 | 93.9
93 | CC(=O)CCc1oc2ccc(NC(C)=O)cc2c1-c1ccc(C)o1 | 131 to 132
94 | CC(=O)CC(=O)OCc1ccc([N+](=O)[O-])cc1 | 45 to 46.5
95 | COC(=O)c1ccc(N)c(N)c1 | 108 to 109
96 | CCCCCCCCCCCC(=O)c1ccccc1 | 47
97 | FC(F)(F)c1cc(C(F)(F)F)[nH]n1 | 82 to 84
98 | Nc1c(Oc2ccccc2)c(Oc2ccccc2)c(N)c2c1C(=O)c1ccccc1C2=O | 195
99 | Cc1cc(C)c(C(=O)O)c(C)n1 | 130 to 160
100 | CC(C)(O)C(=O)c1ccc(OCCO)cc1 | 89
101 | O=C(Oc1c(Cl)cc(Cl)cc1Cl)C(=O)Oc1c(Cl)cc(Cl)cc1Cl | 188 to 192
102 | Cc1ccc(C)c(CC(=O)O)c1 | 128 to 132
103 | CC(C)(O)CCc1ccccc1O | 114 to 116
104 | Clc1cccnc1-c1ccnc(Cl)c1Cl | 169
105 | C[Si](C)(CCCC(=O)O)O[Si](C)(C)CCCC(=O)O | 47
106 | CC(C)(C)OC(=O)NCCCC(=O)O | 55
107 | Cc1ccc2ncccc2c1[N+](=O)[O-] | 118 to 120
108 | COc1ccc(C(=O)C(=O)c2ccc(OC)cc2)cc1 | 131 to 134

Row | Structure (SMILES) | melting point [°C]
109 | O=C(O)CC(C(=O)O)C(CC(=O)O)C(=O)O (stereo unspecified) | 195 to 197
110 | Oc1ccccc1/C=N/n1c(-c2ccccc2)n[nH]c1=S | 209 to 210
111 | Cc1ccc(/C=C(\C(N)=O)c2nc3ccccc3s2)cc1 | 148
112 | O=C(O)C=Cc1cc([N+](=O)[O-])ccc1Sc1ccc(Cl)cc1 | 212 to 215
113 | CC/C(=N\NC(N)=O)C1CC2(C)CCC1C2(C)C (stereo unspecified) | 222
114 | CCCCCCCCC(=O)OC(=O)CCCCCCCC | 14.8
115 | O=C(O)c1c2c(nc3ccc(F)cc13)CCCCC2 | 289 to 291
116 | Cc1nn(C(=O)OC(C)(C)C)c(C)c1I | 56 to 58
117 | CC(C)(C)P(=O)(O)O | 188 to 192
118 | COc1ccc(C=CC(=O)OCCOc2ccc(C=CC(=O)c3ccccc3)cc2)cc1 | 142
119 | [N-]=[N+]=NC(=O)C=Cc1ccc(C=CC(=O)N=[N+]=[N-])cc1 | 80
120 | Nc1cn[nH]c1 | 81
121 | CC(C)(C)c1cnc(C(=O)Nc2cccc(Br)c2)cn1 | 113 to 114
122 | O=C1NC(=O)c2cc([N+](=O)[O-])ccc21 | 206
123 | CCCCSc1sc(C(=O)OCC)c2c1C(=O)CCC2 | 70 to 73
124 | N[C@H](CO)[C@H](O)c1ccccc1 | 110 to 114
125 | O=C(CO)CO | 90
126 | Nc1nsc2ccc([N+](=O)[O-])cc12 | 200
127 | Cc1nc(/C(C#N)=C\c2ccco2)sc1/N=N/c1ccccc1[N+](=O)[O-] | 212 to 213
128 | O=C(O)c1cc(I)ccc1Cl | 161 to 163
129 | N#C/C(=N/Nc1ccccc1[N+](=O)[O-])c1nc(-c2ccccc2)cs1 | 210
130 | Cc1ccc(-c2cccc(C)c2)cc1 | 14.5
131 | Cc1cc([N+]([O-])=Nc2ccccc2)ccc1N=Nc1ccccc1 | 103

Source: a melting point compilation (Tetko et al.)
